Data taken from US12473289B2, “Heterocyclic compounds as delta-5 desaturase inhibitors and methods of use” (Amgen Inc., priority 2019, dated 2025).
pIC50: −log10 of the molar value.

Molecular target: Delta-5-Desaturase (D5D) (Homo sapiens (Human), UniProt O60427)
Test: In vitro measurement of Delta-5-Desaturase inhibitory activity using DGLA-CoA and Arachidonyl-CoA mass spectrometric assays
Type: biochemical
Conditions: membrane preparations of D5D-overexpressing HEK293 6E cells; averaged over at least two independent runs
Description: In vitro Measurement of Delta-5-Desaturase Inhibitory Activity using DGLA-CoA and Arachidonyl-CoA Mass Spectrometric Assays
Membrane preparations of D5D-overexpressing HEK293 6E cells were prepared in which the total protein concentration was 5.6 mg/mL. Stock D5D membrane preparations were diluted in D5D assay buffer (25 mM 2-amino-2-(hydroxymethyl)-1,3-propanediol, pH 7.5 containing 10 mM MgCl2, 1 mM octyl glucoside (SigmaAldrich 0-8001), 1 mM tris(2-carboxyethyl)phosphine hydrochloride (SigmaAldrich 646547)) to a final D5D membrane concentration of 10 μg/mL in an assay plate containing serially diluted test compounds. To 15 μL of this D5D preparation was added 15 μL of a substrate solution (0.25 mM NADH (nicotinamide adenine dinucleotide, Roche Diag. 10107735001), 0.25 mM adenosine triphosphate (SigmaAldrich A-3377), 0.05 mM coenzyme A hydrate (SigmaAldrich C-4282), and 0.01 mM DGLA (dihomo-g-linolenic acid, Sigma E-4504) in the same D5D assay buffer. After one-hour incubation at ambient temperature acetonitrile (30 μL) was added to quench the reaction and plates were centrifuged for 10 min @3,000 rpm. Mass spectrometric analysis involved a Rapidfire 360 SPE system coupled to an ABSciex API4000 Triple Quadrupole mass spectrometer using a C18 SPE cartridge (G9203-80105) with ionization in negative mode (solvent A=100% water; solvent B=100% acetonitrile, each solvent containing 5 mM ammonium acetate). DGLA-CoA and Arachidonyl-CoA were detected by multiple reaction monitoring (MRM) of the doubly charged parent ions at m/z 526.6 and 525.6, respectively.
Sx is value from unknown sample, So is value from DMSO alone and Sc is value from no enzyme well. For CRC analysis, the % of inhibitions were analyzed with 4 Parameter Logistic Model or Sigmoidal Dose-Response Model using XLfit (IDBS, Guilford, UK). The potency of the test item was expressed as IC50 nM, corresponding to the test item concentration able to inhibit the 50% of the enzyme maximal response. IC50 values were averaged values determined by at least two independent runs.
This assay may be used to test any of the compounds described herein to assess and characterize a compound's ability to inhibit D5D.

Delta-5-Desaturase (D5D), sequence (O60427 whole entry, species assumed): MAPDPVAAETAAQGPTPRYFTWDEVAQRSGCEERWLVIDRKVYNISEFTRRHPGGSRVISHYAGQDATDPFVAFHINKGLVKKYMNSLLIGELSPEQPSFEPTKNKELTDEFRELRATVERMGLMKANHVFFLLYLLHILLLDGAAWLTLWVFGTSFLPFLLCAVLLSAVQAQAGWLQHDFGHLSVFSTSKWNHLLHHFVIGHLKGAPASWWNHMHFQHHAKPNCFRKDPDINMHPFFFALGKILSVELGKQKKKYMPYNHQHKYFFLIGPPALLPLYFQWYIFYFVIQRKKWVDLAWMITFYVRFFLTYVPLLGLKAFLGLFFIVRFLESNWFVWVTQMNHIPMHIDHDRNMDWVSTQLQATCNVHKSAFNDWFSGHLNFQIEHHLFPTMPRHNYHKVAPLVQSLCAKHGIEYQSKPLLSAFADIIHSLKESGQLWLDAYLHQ

| pIC50 | Structure (SMILES) |
| --- | --- |
| 8.28 | NC(=O)c1ccn2c(=O)c(-c3ccc(OCC(F)(F)F)cc3)c(C(F)(F)F)nc2c1 [Example 12-2, 4-oxo-3-(4-(2,2,2-trifluoroethoxy)phenyl)-2-(trifluoromethyl)-4H-pyrido[1,2-a]pyrimidine-8-carboxamide] |
| 7.63 | COc1ccn2c(=O)c(-c3ccc(O[C@H](C)C#N)cc3)c(C(F)(F)F)nc2n1 [Example 8-6, (2R)-2-(4-(8-methoxy-4-oxo-2-(trifluoromethyl)-4H-pyrimido[1,2-a]pyrimidin-3-yl)phenoxy)propanenitrile] |
| < 4.17 | O=c1c(-c2cnc(OCC(F)(F)F)nc2)c(C(F)(F)F)nc2ccc(F)cn12 [Example 39-26, 7-fluoro-3-[2-(2,2,2-trifluoroethoxy)pyrimidin-5-yl]-2-(trifluoromethyl)-4H-pyrido[1,2-a]pyrimidin-4-one] |
| 7.36 | Cn1c(=O)c(F)cn2c(=O)c(-c3cnn(CC(F)(F)C(F)(F)F)c3)c(C(F)(F)F)nc12 [Example 63, 3-Fluoro-1-methyl-7-[1-(2,2,3,3,3-pentafluoropropyl)-1H-pyrazol-4-yl]-8-(trifluoromethyl)-1H,2H,6H-[1,3]diazino[1,2-a]pyrimidine-2,6-dione] |
| 8.96 | O=c1c(-c2cnn(CCC(F)(F)F)c2)c(C(F)(F)F)nc2ccc(F)cn12 [Example 39-27, 7-fluoro-2-(trifluoromethyl)-3-[1-(3,3,3-trifluoropropyl)-1H-pyrazol-4-yl]-4H-pyrido[1,2-a]pyrimidin-4-one] |
| 7.94 | COc1ccn2c(=O)c(-c3cnn(CC4CC4(F)F)c3)c(C(F)(F)F)nc2c1 (racemic) [Example 39-42, 3-{1-[(2,2-difluorocyclopropyl)methyl]-1H-pyrazol-4-yl}-8-methoxy-2-(trifluoromethyl)-4H-pyrido[1,2-a]pyrimidin-4-one] |
| 8.16 | COc1cnn2c(=O)c(-c3cnn(CCC(F)(F)F)c3)c(C(F)(F)F)nc2c1 [Example 39-11, 8-methoxy-2-(trifluoromethyl)-3-[1-(3,3,3-trifluoropropyl)-1H-pyrazol-4-yl]-4H-pyrimido[1,2-b]pyridazin-4-one] |

The next lines start with the molecule.

| Structure (SMILES) | pIC50 |
| --- | --- |
| COc1ccn2c(=O)c(-c3ccc(OCC(F)(F)F)c(F)c3)c(C(F)F)nc2c1 [Example 1-12, 2-(difluoromethyl)-3-(3-fluoro-4-(2,2,2-trifluoroethoxy)phenyl)-8-methoxy-4H-pyrido[1,2-a]pyrimidin-4-one] | 8.00 |
| CC(=O)Nc1ccn2c(=O)c(-c3ccc(OCC(F)(F)F)cc3)c(C(F)(F)F)nc2c1 [Example 1-31, N-(4-oxo-3-(4-(2,2,2-trifluoroethoxy)phenyl)-2-(trifluoromethyl)-4H-pyrido[1,2-a]pyrimidin-8-yl)acetamide] | 5.76 |
| CCc1nc2cc(OC)ccn2c(=O)c1-c1ccc(OCC(F)(F)F)nc1 [Example 1-60, 2-ethyl-8-methoxy-3-(6-(2,2,2-trifluoroethoxy)-3-pyridinyl)-4H-pyrido[1,2-a]pyrimidin-4-one] | 7.42 |
| O=c1c(-c2cnn(-c3ccccc3)c2)c(C(F)(F)F)nc2ccccn12 [Example 1-43, 3-(1-phenyl-1H-pyrazol-4-yl)-2-(trifluoromethyl)-4H-pyrido[1,2-a]pyrimidin-4-one] | 7.34 |
| O=c1c(-c2cnn(CC(F)(F)C(F)(F)F)c2)c(C(F)(F)F)nc2cc(C3CC3)ccn12 [Example 1-87, 8-cyclopropyl-3-(1-(2,2,3,3,3-pentafluoropropyl)-1H-pyrazol-4-yl)-2-(trifluoromethyl)-4H-pyrido[1,2-a]pyrimidin-4-one] | 7.07 |
| CC(C)c1ccn2c(=O)c(-c3ccc(OCC(F)(F)F)cc3)c(C(F)(F)F)nc2c1 [Example 1-32, 8-(2-propanyl)-3-(4-(2,2,2-trifluoroethoxy)phenyl)-2-(trifluoromethyl)-4H-pyrido[1,2-a]pyrimidin-4-one] | 6.38 |
| O=c1c(-c2ccc(OCC(F)(F)F)cc2F)c(C(F)(F)F)nc2ccccn12 [Example 5-1, 3-(2-Fluoro-4-(2,2,2-trifluoroethoxy)phenyl)-2-(trifluoromethyl)-4H-pyrido[1,2-a]pyrimidin-4-one] | 7.90 |
